Results from patent US11603356B2, “Amorphous form of a complement component C5a receptor” (CHEMOCENTRYX, INC., priority 2019, dated 2023).
Values after ≈ are worked out from the molar mass of the structure shown.

Experiments:
[1] = In vivo rat PK study, oral aqueous liquid suspension formulation
Method: An in vivo rat PK study was conducted to compare the PK profile and bioavailability of crystalline form against amorphous form of Compound 1 in an aqueous liquid suspension formulation, which contained 0.5% w/v Hydroxypropyl Cellulose (Klucel GF grade) and 0.5% w/v Poloxamer F-68 (BASF Kolliphor P188). Each animal was orally administrated 10 mg/kg of Compound 1 at 5 mL/kg dosing volume (a dosing concentration of 2 mg/mL).

[2] = Dynamic vapor sorption (DVS) of the amorphous form; format: physicochemical
Method: To evaluate the hygroscopicity and physical stability of the amorphous form of Compound 1 under different humidity, dynamic vapor sorption (DVS) data was collected at 25° C. after the sample was pre-equilibrated at 0% RH to remove unbounded water. DVS was measured using a VTI SGA-100 Vapor Sorption Analyzer. Sorption and desorption data was collected over a range from 5% to 95% RH at 10% RH increments under a nitrogen purge. The equilibrium criterion used for analysis was less than 0.0100% weight change in 5 minutes with a maximum equilibrium time of 3 hours.

[3] = Solubility in IV formulation saline/PEG400/Tween80; format: physicochemical
Method: Intravenous (IV) formulations of a crystalline form of Compound 1 and the amorphous form of Compound 1 were prepared by contacting the amorphous of crystalline Compound 1 with saline/PEG400/Tween80 (88:10:1). The crystalline form of Compound 1 was prepared as described in Example 1, the amorphous form of Compound was prepared as described in Example 2, Method 1.

[4] = Stability storage test (25° C./60% RH, 12 months; HPLC, KF, XRPD); format: physicochemical; settings: for Specified Individual Related Substances (HPLC): RRT1.05
Method: A sample of amorphous form of Compound 1 was tested by different analytical methods and the data was reported in the “Time Zero” column (Table 3). These analytical methods included: HPLC and Karl Fisher (KF). The sample was placed in double Low-Density Polyethylene (LDPE) bags, sealed with a cable tie, then placed in a High-Density Polyethylene (HDPE) bottle with foil and heat-induction sealed, with 0.5 g desiccant between LDPE bags. The HDPE bottle was stored inside an environment chamber at 25° C. and 60% relative humidity (RH). After 12 months inside the environment chamber, the sample was tested again by the same analytical methods.

[5] = Kinetic solubility in 0.1 N HCl, FaSSGF and FeSSIF at 37° C.; format: physicochemical
Method: The in vitro solubility of a crystalline form of Compound 1 and the amorphous form of Compound 1 was tested.
The amorphous form was prepared as described in Example 2, Method 1, and the crystalline form of Compound 1 was prepared as described in Example 1.
Crystalline and amorphous forms of Compound 1 were saturated in three different media: 0.1 N HCl solution, Fasted State Simulated Gastric Fluid (FaSSGF), and Fed State Simulated Intestinal Fluid (FeSSIF). The samples were shaken inside a 37° C. water bath at 40 rpm. The concentration of Compound 1 dissolved in these samples was measured by HPLC at four different time points (0.5, 1, 2 and 4 hours).

[6] = oral 10 mg/kg, suspension in 0.5% w/v Klucel GF and 0.5% w/v Poloxamer F-68, 10 mg/kg

## Cc1ccc(NC(=O)[C@H]2CCCN(C(=O)c3c(C)cccc3F)[C@H]2c2ccc(NC3CCCC3)cc2)cc1C(F)(F)F [Amorphous Compound 1, (2R,3S)-2-(4-(cyclopentylamino)phenyl)-1-(2-fluoro-6-methylbenzoyl)-N-(4-methyl-3-(trifluoromethyl)phenyl)piperidine-3-carboxamide]
[1]; in vivo, oral 10 mg/kg, suspension in 0.5% w/v Klucel GF and 0.5% w/v Poloxamer F-68
  AUC(0-inf): 2470 ng·h/mL
[1]; in vivo, oral 10 mg/kg, suspension in 0.5% w/v Klucel GF and 0.5% w/v Poloxamer F-68, read-out: AUC0-t
  AUC0-t: 2410 ng·h/mL
[1]; in vivo, oral 10 mg/kg, suspension in 0.5% w/v Klucel GF and 0.5% w/v Poloxamer F-68, read-out: Cmax
  Cmax: 388 ng/mL
[1]; oral 10 mg/kg suspension
  Cmax and AUC compared to the formulation containing crystalline form: significant increase in Cmax and AUC
[1]; [6]
  MRT: 5.6 h
  Tmax: 2 h
  t1/2: 4.7 h
[2]; DVS, 25° C.
  hygroscopicity: low hygroscopicity
  hysteresis between adsorption and desorption (DVS plot): no hysteresis
[2]; XRPD, FIG. 7
  form change by XRPD before and after DVS test: no form change
[2]; about 0% RH to about 65% RH at 25° C.
  weight gain after dynamic vapor sorption cycle: about 0.31%
[3]; particularly at early time points
  aqueous solubility in an IV formulation compared to the crystalline form: improved the aqueous solubility
[3]; saline/PEG400/Tween80 (88:10:1) IV formulation, aqueous with cosolvent or surfactant or cyclodextrin, thermodynamic from solid, saline/PEG400/Tween80 (88:10:1), 8 Hr.
  solubility at 8 h: 35.6 µg/mL (≈ 61.2 µM)
[3]; saline/PEG400/Tween80 (88:10:1) IV formulation, aqueous with cosolvent or surfactant or cyclodextrin, thermodynamic from solid, saline/PEG400/Tween80 (88:10:1), 24 Hr.
  solubility at 24 h: 28.9 µg/mL (≈ 49.7 µM)
[3]; saline/PEG400/Tween80 (88:10:1) IV formulation, aqueous with cosolvent or surfactant or cyclodextrin, thermodynamic from solid, saline/PEG400/Tween80 (88:10:1), 48 Hr.
  solubility at 48 h: 26.9 µg/mL (≈ 46.2 µM)
[3]; saline/PEG400/Tween80 (88:10:1) IV formulation, aqueous with cosolvent or surfactant or cyclodextrin, thermodynamic from solid, saline/PEG400/Tween80 (88:10:1), 96 Hr.
  solubility at 96 h: 26.3 µg/mL (≈ 45.2 µM)
[3]; saline/PEG400/Tween80 (88:10:1), 0.5 Hr.
  Solubility in IV Formulation: 140.0 µg/mL (≈ 241 µM)
[3]; saline/PEG400/Tween80 (88:10:1), 1 Hr.
  Solubility in IV Formulation: 150.6 µg/mL (≈ 259 µM)
[3]; saline/PEG400/Tween80 (88:10:1), 2 Hr.
  Solubility in IV Formulation: 96.1 µg/mL (≈ 165 µM)
[3]; saline/PEG400/Tween80 (88:10:1), 4 Hr.
  Solubility in IV Formulation: 52.8 µg/mL (≈ 90.8 µM)
[4]; RRT0.45, Time Zero
  Unspecified Individual Related Substances (HPLC): RRT0.45: <0.05%
[4]; RRT0.50, Time Zero
  Unspecified Individual Related Substances (HPLC): RRT0.50: <0.05%
[4]; RRT0.90, Time 12 months (25° C./60% RH)
  Unspecified Individual Related Substances (HPLC): RRT0.90: 0.20%
[4]; RRT0.90, Time Zero
  Unspecified Individual Related Substances (HPLC): RRT0.90: 0.05%
[4]; RRT0.96, Time 12 months (25° C./60% RH)
  Unspecified Individual Related Substances (HPLC): RRT0.96: <0.05%
[4]; RRT0.96, Time Zero
  Unspecified Individual Related Substances (HPLC): RRT0.96: <0.05%
[4]; Time 12 months (25° C./60% RH)
  Specified Individual Related Substances (HPLC): RRT1.05: <0.05%
  Appearance: Off-white Powder
  Potency (HPLC): 98.9% w/w
  Total Impurities and Related Substances (HPLC): 0.20%
  Water Content (KF): 0.31%
  enantiomeric impurity: 0.0%
[4]; Time Zero
  Specified Individual Related Substances (HPLC): RRT1.05: 0.08%
  Appearance: Off-white Powder
  Potency (HPLC): 99.5% w/w
  Total Impurities and Related Substances (HPLC): 0.38%
  Water Content (KF): 0.33%
  enantiomeric impurity: 0.0%
[4]; RRT1.06, Time 12 months (25° C./60% RH)
  Unspecified Individual Related Substances (HPLC): RRT1.06: 0.07%
[4]; RRT1.14, Time 12 months (25° C./60% RH)
  Unspecified Individual Related Substances (HPLC): RRT1.14: <0.05%
[4]; RRT1.14, Time Zero
  Unspecified Individual Related Substances (HPLC): RRT1.14: 0.05%
[4]; RRT1.16, Time Zero
  Unspecified Individual Related Substances (HPLC): RRT1.16: <0.05%
[4]; RRT1.20, Time Zero
  Unspecified Individual Related Substances (HPLC): RRT1.20: 0.22%
[4]; RRT1.21, Time Zero
  Unspecified Individual Related Substances (HPLC): RRT1.21: 0.06%
[4]; RRT1.22, Time Zero
  Unspecified Individual Related Substances (HPLC): RRT1.22: <0.05%
[5]; 0.1N HCl (pH 1.06), 0.5 Hr.
  CCX168 Solubility at 37° C.: 47.5 µg/mL
[5]; 0.1N HCl (pH 1.06), 1 Hr.
  CCX168 Solubility at 37° C.: 54.0 µg/mL
[5]; 0.1N HCl (pH 1.06), 2 Hr.
  CCX168 Solubility at 37° C.: 74.7 µg/mL
[5]; 0.1N HCl (pH 1.06), 4 Hr.
  CCX168 Solubility at 37° C.: 61.7 µg/mL
[5]; FaSSGF (pH 1.64), 0.5 Hr.
  CCX168 Solubility at 37° C.: 9.3 µg/mL
[5]; FaSSGF (pH 1.64), 1 Hr.
  CCX168 Solubility at 37° C.: 7.8 µg/mL
[5]; FaSSGF (pH 1.64), 2 Hr.
  CCX168 Solubility at 37° C.: BQL (BQL = Less than 3.1 μg/mL)
[5]; FaSSGF (pH 1.64), 4 Hr.
  CCX168 Solubility at 37° C.: ND (ND = Not Detected)
[5]; FeSSIF (pH 4.90), 0.5 Hr.
  CCX168 Solubility at 37° C.: 6.0 µg/mL
[5]; FeSSIF (pH 4.90), 1 Hr.
  CCX168 Solubility at 37° C.: 9.9 µg/mL
[5]; FeSSIF (pH 4.90), 2 Hr.
  CCX168 Solubility at 37° C.: 9.0 µg/mL
[5]; FeSSIF (pH 4.90), 4 Hr.
  CCX168 Solubility at 37° C.: 7.4 µg/mL
